Read-outs that look alike come from different tables or passages of the source.
What was measured:
[1] = phase 1 study in patients with mild to moderate Parkinson's disease (PK, safety); type: in vivo, human; conditions: human, plasma; for Tmax / Cmax / AUC / concentration at 12 h / half-life at 7 days / Tmax at 7 days / half-life / concentration at 24 h / AUC(0-t) / AUC(0-inf): oral; for Cmax: read-out: Cmax (geometric mean); for AUC: read-out: AUC(0-tau) (geometric mean); for AUC(0-inf): read-out: AUC(0-inf) (geometric mean)
Description: Study Title: A Single Part Study to Assess the Safety, Tolerability, Pharmacokinetics and Pharmacodynamics of Multiple Ascending Oral Doses of anle138b, and to Characterize the Effect of Food on the Pharmacokinetics of anle138b in Patients with Mild to Moderate Parkinson's Disease.
This was a two-center, double-blind, randomised, placebo-controlled study that enrolled twenty two (22) participants in cohorts (i.e. regimens) A-C. All completed the study per protocol. After completion of Cohorts A to C it was decided to add Cohorts D and E of 24 subjects. Cohort D expanded sample size of previous dosing regiments 150 mg and 300 mg QD and Cohort E administration of anle138b 300 mg for 28 days, under non fasted conditions.
Drug product used is described in section 1.3, supra, placebo was vehicle in capsule. Subjects were between 50 and 80 years of age with a diagnosis of idiopathic PD as defined by the Movement Disorders Society criteria (either fulfilling criteria for “Clinically Established PD” or for “Clinically Probable PD”). They had to present with Hoehn and Yahr stage I-III (i.e. able to walk unaided), and stable medication for PD for 1 month prior to inclusion and anticipated over the study period. The subjects were randomly assigned to receive one of three drug regimens, A, B or C, as follows: • Regimen A—150 mg (5×30 mg) anle138b oral capsules or matching placebo QD, for 7 consecutive days in the fasted state, followed by a single administration of 150 mg anle138b oral capsule or matching placebo on Day 9 in the fed state, • Regimen B—300 mg (10×30 mg) anle138b oral capsules or matching placebo QD, for 7 consecutive days in the fasted state, followed by a single administration of 300 mg anle138b oral capsule (10×30 mg capsules) or matching placebo on Day 9 in the fed state, • Regimen C—150 mg (5×30 mg) anle138b oral capsules or matching placebo BID (total 300 mg daily), […]
Primary endpoints provided safety and tolerability information for the test product by assessing: AEs, vital signs, ECGs, physical examinations and laboratory safety tests, and to provide additional safety and tolerability information for the test product taken also in the fed state by assessing: AEs, vital signs, ECGs, physical examinations and laboratory safety tests.
Secondary endpoints provided PK information for the test product in PD patients by assessing plasma exposure under fast and fed conditions.

[2] = 28-day toxicity study in rats; type: in vivo
Description: Safe starting dose & exposure limit justification: This trial followed the recommendations of the EMA (European Medicines Agency) (EMEA/CHMP/SWP/28367/07 Rev. 1; 20 Jul. 2017) and the FDA (Food and Drug Administration) (Guidance for Industry: Estimating the Maximum Safe Starting Dose in Initial Clinical Trials for Therapeutics in Adult Healthy Volunteers. U.S. Department of Health and Human Services Food and Drug Administration Center for Drug Evaluation and Research (CDER) July 2005) for dose finding in a first-in-human study. The safe starting dose was set based on toxicity studies in animals. In a 28-day toxicity study in rats, the no-observed-adverse-effect-level (NOAEL) was determined to be 50 mg/kg/day (human equivalent dose of 8.1 mg/kg). The dose range of the current trial was designed to start at 50 mg. Escalation between doses was planned to be flexible depending on emerging results but not to exceed an increment of 2-fold.

oligomer accumulation = conditions: range of different mouse models; cited from earlier work
monomer = conditions: cited from earlier work

Brc1cccc(-c2cc(-c3ccc4c(c3)OCO4)n[nH]2)c1 [anle138b, 3-(1,3-benzodioxol-5-yl)-5-(3-bromophenyl)-1H-pyrazole]
Tmax ([1]; 150 mg, PD patients, Regimen A 150 mg single dose on Day 9, fed state, read-out: Tmax (range)): 1.5 to 4 h
Cmax ([1]; 150 mg, PD patients, Regimen C 150 mg BID, fast, Day 1): ~546 ng/mL
Tmax ([1]; 150 mg, PD patients, Regimen C 150 mg BID, fast, Day 1, read-out: Tmax (median)): 1 h
Tmax ([1]; 150 mg, PD patients, Regimen C 150 mg BID, fast, Day 1, read-out: Tmax (range)): 1 to 2 h
AUC ([1]; 150 mg, PD patients, Regimen C 150 mg BID, fast, Day 1, tau 12 h): ~993 ng·h/mL
concentration at 12 h ([1]; 150 mg, PD patients, Regimen C 150 mg BID, fast, Day 1, tau 12 h, read-out: Ctau (geometric mean)): 7.41 ng/mL
Cmax ([1]; 150 mg, PD patients, Regimen C 150 mg BID, fast, Day 7): ~182 ng/mL
half-life at 7 days ([1]; 150 mg, PD patients, Regimen C 150 mg BID, fast, Day 7, read-out: T1/2 (geometric mean) (converted)): 14.1 h
Tmax at 7 days ([1]; 150 mg, PD patients, Regimen C 150 mg BID, fast, Day 7, read-out: Tmax (median)): 1 h
Tmax at 7 days ([1]; 150 mg, PD patients, Regimen C 150 mg BID, fast, Day 7, read-out: Tmax (range)): 1 to 1.5 h
AUC ([1]; 150 mg, PD patients, Regimen C 150 mg BID, fast, Day 7, tau 12 h): ~297 ng·h/mL
concentration at 12 h ([1]; 150 mg, PD patients, Regimen C 150 mg BID, fast, Day 7, tau 12 h, read-out: Ctau (geometric mean)): 4.05 ng/mL
half-life ([1]; 150 mg, patient, 150 mg once daily for 7 consecutive days, fed conditions as printed, day 7, read-out: T½ of anle138b (clause 14) (converted)): ~11.7 h
Cmax ([1]; 300 mg, PD patients, Regimen B 300 mg QD (row prints fed, title fasted state), Day 1): ~933 ng/mL
Tmax ([1]; 300 mg, PD patients, Regimen B 300 mg QD (row prints fed, title fasted state), Day 1, read-out: Tmax (median)): 1.5 h
Tmax ([1]; 300 mg, PD patients, Regimen B 300 mg QD (row prints fed, title fasted state), Day 1, read-out: Tmax (range)): 1 to 4 h
AUC ([1]; 300 mg, PD patients, Regimen B 300 mg QD (row prints fed, title fasted state), Day 1, tau 24 h): ~2500 ng·h/mL
concentration at 24 h ([1]; 300 mg, PD patients, Regimen B 300 mg QD (row prints fed, title fasted state), Day 1, tau 24 h, read-out: Ctau (geometric mean)): 6.81 ng/mL
Cmax ([1]; 300 mg, PD patients, Regimen B 300 mg QD (row prints fed, title fasted state), Day 7): ~365 ng/mL
Tmax at 7 days ([1]; 300 mg, PD patients, Regimen B 300 mg QD (row prints fed, title fasted state), Day 7, read-out: Tmax (median)): 1.5 h
Tmax at 7 days ([1]; 300 mg, PD patients, Regimen B 300 mg QD (row prints fed, title fasted state), Day 7, read-out: Tmax (range)): 1 to 2 h
AUC ([1]; 300 mg, PD patients, Regimen B 300 mg QD (row prints fed, title fasted state), Day 7, tau 24 h): ~722 ng·h/mL
concentration at 24 h ([1]; 300 mg, PD patients, Regimen B 300 mg QD (row prints fed, title fasted state), Day 7, tau 24 h, read-out: Ctau (geometric mean)): 3.19 ng/mL
half-life at 7 days ([1]; 300 mg, PD patients, Regimen B 300 mg QD, Day 7, read-out: T1/2 (geometric mean) (converted)): 11.8 h
half-life ([1]; 300 mg, PD patients, Regimen B 300 mg single dose on Day 9, fed state, n = 4, read-out: T1/2 (geometric mean) (converted)): 13 h
AUC(0-t) ([1]; 300 mg, PD patients, Regimen B 300 mg single dose on Day 9, fed state, read-out: AUC(0-24) (geometric mean)): 795 ng·h/mL
AUC(0-t) ([1]; 300 mg, PD patients, Regimen B 300 mg single dose on Day 9, fed state, read-out: AUC(0-last) (geometric mean)): 831 ng·h/mL
concentration at 24 h ([1]; 300 mg, PD patients, Regimen B 300 mg single dose on Day 9, fed state, read-out: C24 (geometric mean)): 2.88 ng/mL
Cmax ([1]; 300 mg, PD patients, Regimen B 300 mg single dose on Day 9, fed state): 231 ng/mL
Tmax ([1]; 300 mg, PD patients, Regimen B 300 mg single dose on Day 9, fed state, read-out: Tmax (median)): 3 h
Tmax ([1]; 300 mg, PD patients, Regimen B 300 mg single dose on Day 9, fed state, read-out: Tmax (range)): 3 to 4 h
AUC(0-inf) ([1]; PD patients, Regimen A 150 mg single dose on Day 9, fed state, n = 3): 599 ng·h/mL
AUC(0-inf) ([1]; PD patients, Regimen B 300 mg single dose on Day 9, fed state, n = 4): 826 ng·h/mL
concentration at 3 h ([1]; po, 300 mg, PD patients, multiple QD oral doses of 300 mg, fasted, 3 h post-dose on Day 5, read-out: plasma anle138b concentration (geometric mean)): 133 ng/mL
no-observed-adverse-effect-level (NOAEL) ([2]; 28-day toxicity study in rats): 50 mg/kg/day
NOAEL at 28 days ([2]; rat, in vivo): 8.1 mg/kg
effect in mouse models in vivo (in words) (oligomer accumulation): strongly inhibited oligomer accumulation, neuronal degeneration, and disease progression
binding to the monomer (in words) (monomer): does not bind to the monomer
